# Patent publication US10501479B2, “Benzenesulfonyl-asymmetric ureas and medical uses thereof” (HELSINN HEALTHCARE SA, priority 2016, dated 2019)
# “And” between values parts separate entries of the source, which are not always exact repeats. Identical values can stand only once. Like-named read-outs stand apart in the source and are kept apart here.
# Tests used:
# [1] = target: T1, recombinant human ghrelin receptor (HEK293/GRLN) (Homo sapiens, UniProt Q92847); assay: Ghrelin inverse agonist potency (EC50) with IP-1 (IP-One HTRF) assay; type: cell-based; details: IP-1 assay
# T1 construct: expressed in transfected cells
# T1 sequence (Q92847 whole entry): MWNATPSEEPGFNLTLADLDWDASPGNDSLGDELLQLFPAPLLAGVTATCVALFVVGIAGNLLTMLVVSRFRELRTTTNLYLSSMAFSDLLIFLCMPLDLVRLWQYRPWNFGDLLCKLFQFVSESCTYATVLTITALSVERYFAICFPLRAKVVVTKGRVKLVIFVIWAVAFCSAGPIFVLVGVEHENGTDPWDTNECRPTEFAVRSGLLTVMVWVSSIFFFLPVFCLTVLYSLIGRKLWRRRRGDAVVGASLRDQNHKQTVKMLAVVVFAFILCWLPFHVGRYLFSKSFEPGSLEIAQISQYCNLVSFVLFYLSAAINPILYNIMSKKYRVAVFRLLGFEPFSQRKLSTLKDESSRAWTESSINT
# Method in brief: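 IP-1 accumulation was measured by HTRF (IP1-d2/Tb-cryptate, 620/665 nm read after 1 hour at room temperature) following 1 hour of compound treatment at 37° C. Cells were HEK293 stably expressing human ghrelin receptor, plated a day earlier on Matrigel. Inverse agonist potency was reported as EC50.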
# [2] = target: T2, GHSR-1a (HEK293/GHSR1a cell line) (Homo sapiens, UniProt Q92847); assay: Ghrelin antagonist potency (IC50) with calcium FLIPR assay, ghrelin 10 nM; type: cell-based
# T2 construct: expressed in transfected cells; host or cells: HEK293/GHSR1a cell line
# T2 sequence (Q92847 whole entry): as above
# Method in brief: (§1)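 In this assay, compound alone assesses agonism, while compound co-added with ghrelin at 10 nM assesses antagonism. In both modes the calcium-dye signal is tracked for 2 min from t=20 sec.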
# [3] = Metabolic stability in human liver microsomes; type: in vitro ADME
# Method in brief: (§2)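 Loss of parent over time in microsomal incubations at 37 °C with NADPH regeneration, sampled up to 90 min and read by LC-MS/MS.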
# [4] = Metabolic stability in mouse liver microsomes; type: in vitro ADME
# Method in brief: as §2
# [5] = Animal PK study in mouse via i.v., p.o. and s.c. administration; type: in vivo; details: for Vd / clearance / half-life: plasma; for clearance: read-out: PK CL i.v.
# Method in brief: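 Plasma drug levels were measured by LC-MS/MS after acetonitrile precipitation, with blood drawn up to 24 h post-dose (from 0.083 h i.v./s.c., 0.25 h oral) in mice or rats. Animals received one dose by gavage in DMSO/methylcellulose, or by tail-vein or subcutaneous injection in DMSO/HP-β-cyclodextrin.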
# [6] = Plasma protein binding (PPB), human; type: in vitro ADME; details: read-out: PPB (H)
# [7] = Plasma protein binding (PPB), mouse; type: in vitro ADME
# [8] = target: T2, GHSR-1a (HEK293/GHSR1a cell line); assay: Ghrelin agonist potency (EC50) with calcium FLIPR assay; type: cell-based; details: HEK293/GHSR1a, read-out: Activity EC50/EMax: EC50 (ghrelin agonist potency)
# Method in brief: as §1
# [9] = Plasma protein binding (PPB), human; type: in vitro ADME; details: read-out: PPB (H) (converted)
# [10] = Plasma protein binding (PPB), mouse; type: in vitro ADME; remark: listed apart in the source
# [11] = Animal PK study in rat via i.v., p.o. and s.c. administration; type: in vivo; details: rat, i.p.
# [12] = Metabolic stability in dog liver microsomes; type: in vitro ADME
# Experimental: (§3) Metabolic Stability Study
# (§4) The metabolic stability of compounds in human, dog, rat and mouse liver microsomes was performed according the experimental conditions reported below:
# (§5) • a) Prepare the following 5 stock solutions: • 1. Test compound stock solutions: dilute 10 mM solution of dextromethorphan (Dtr) in DMSO, 10 mM solution of diphenhydramine (DPA) in DMSO, 10 mM solution of omeprazole (Ome) in DMSO, 10 mM solution of verapamil (Ver) in DMSO, and 10 mM of an inverse agonist compound in DMSO to 0.25 mM solution each with acetonitrile/water (70/30). • 2. Buffer: 100 mM potassium phosphate Buffer (PBS) at pH 7.4 • 3. Liver microsomes (20 mg/ml): Thaw in 37° C. water bath quickly • 4. 2000 μL: of NADPH regenerating system (1.3 mM). Place this system on ice before use:
# (§6) • 5. […] The test compound concentration in the wells, measured by LC-MS/MS, represents the concentration at time=0. • f) To determine the test compound concentration when t≠0, pre-incubate the NADPH regenerating system and the incubation plate containing the remaining 320 μL of incubation mixture (microsomes protein and test compound) for 5 minutes at 37° C. • g) Start the incubation reaction by adding 80 μL NADPH regenerating system to each well containing the remaining 320 μL incubation mixture. • h) After 10 min., 30 min., and 90 min. of incubation at 37° C., transfer 100 μL of the incubation mixture (microsomes protein, test compound, and NADPH) into the wells of a stop plate pre-filled with 300 μL of the cold quench solution. Shake well. • i) Centrifuge the stop plate at 5000×g for 10 minutes. Collect and dilute the supernatant 3 times with distilled water. Sample and analyze the test compound concentration for all the wells by LC-MS/MS. Animal PK Studies via i.v. (intravenous), p.o. (orally) and s.c. (subcutaneous) administrations
# [13] = Metabolic stability in rat liver microsomes; type: in vitro ADME
# Experimental: as §3, §4, §5, §6
# [14] = inverse agonist potency, read-out: EC50 (Activity)
# [15] = ghrelin antagonist potency, read-out: IC50 (Activity)
# [16] = HEK293/GRLN, read-out: Activity EC50 (ghrelin inverse agonist potency)
# [17] = HEK293/GHSR1a, ghrelin 10 nM, read-out: Activity IC50 (ghrelin antagonist potency)
# [18] = iv, 5 mg/kg, i.v., read-out: PK t1/2 i.v.
# [19] = po, 10 mg/kg, p.o., read-out: PK t1/2 p.o.
Structure (SMILES),"EC50 [1, 14] [nM]","IC50 [2, 15] [nM]",Metabolic Stability Study H = human [3] [µL/min/mg],Metabolic Stability Study M = mouse [4] [µL/min/mg],PK F [5] [%],fraction unbound [6],fraction unbound [7],"EC50 [1, 16]",EC50 [8] [nM],"IC50 [2, 17]",PK CL p.o. ([5]; p.o.) [mL/min/kg],PK Vd p.o. ([5]; p.o.) [L/kg],"Vd ([5]; iv, 5 mg/kg) [L/kg]","clearance ([5]; iv, 5 mg/kg, i.v.) [mL/min/kg]","half-life [5, 19] [h]",fraction unbound [9],fraction unbound [10],other results
"Cl.O=C(NCc1cccc(Cl)c1Cl)Nc1ccc(S(=O)(=O)Cc2ccc3c(c2)CNC3)cc1 [H1057, 1-(2,3-dichlorobenzyl)-3-(4-((isoindolin-5-ylmethyl)sulfonyl)phenyl)urea]",6.9,19.3,12.6,10.8,1.6,0.005,0.005,–,–,–,–,–,–,–,–,–,–,PK CLiv ([5]; i.v.): 26.2 mL/min/kg; PK Vdiv ([5]; i.v.): 2.18 L/kg; PK t1/2iv ([5]; i.v.): 0.96 h; PK CLpo ([5]; p.o.): 1371 mL/min/kg; PK Vdpo ([5]; p.o.): 368.9 L/kg; PK t1/2po ([5]; p.o.): 3.11 h
"CC(NC(=O)Nc1ccc(S(=O)(=O)Cc2ccc3c(c2)CNC3)cc1)c1ccc(F)cc1 (centres unmarked) [H1262, 1-(1-(4-fluorophenyl)ethyl)-3-(4-((isoindolin-5-ylmethyl)sulfonyl)phenyl)urea]",–,–,18.2,11.2,1.13,–,–,7.5 nM,> 30000,10.6 nM,1847,307,1.69,21.8,1.92,0.099,0.05,"half-life [5, 18]: 0.89 h"
"COc1cc(S(=O)(=O)Cc2ccc3c(c2)CN(C)C3)ccc1NC(=O)NC(C)c1ccccc1 (centres unmarked) [H1388, 1-(2-methoxy-4-(((2-methylisoindolin-5-yl)methyl)sulfonyl)phenyl)-3-(1-phenylethyl)urea]",–,–,58.1,42.4,11.3,–,–,4.6 nM,> 30000,10.2 nM,675,86.8,6.3,77.7,1.49,0.031,0.079,"half-life [5, 18]: 0.93 h"
"COc1cc(S(=O)(=O)Cc2ccc3c(c2)CNC3)ccc1NC(=O)NC(C)c1cccc(Cl)c1Cl.Cl (centres unmarked) [H1421, 1-(1-(2,3-dichlorophenyl)ethyl)-3-(4-((isoindolin-5-ylmethyl)sulfonyl)-2-methoxyphenyl)urea]",–,–,13.2,38.8,–,–,–,0.4 nM,> 50000,1.8 nM,–,–,–,–,–,0.0037,0.0034,"half-life ([11]; plasma, ip, read-out: PK t1/2 i.p. (R)): 19 h; PK CL i.p. (R) [11]: 32.7 mL/min/kg; PK Vd i.p. (R) [11]: 54.56 L/kg"
COc1ccc([C@H](C)NC(=O)Nc2ccc(S(=O)(=O)Nc3ccc4c(c3)CCN(C)C4)cc2)c(Cl)c1Cl [H1017],9.8,72,11.5,30.5,–,0.001,0.0003,–,–,–,–,–,–,–,–,–,–,–
"CNC(C)(C)Cc1ccc(NS(=O)(=O)c2ccc(NC(=O)N[C@@H](C)c3ccc(-c4cnccn4)c(Cl)c3Cl)cc2)cc1 [H0941, (S)-4-(3-(1-(2,3-dichloro-4-(pyrazin-2-yl)phenyl)ethyl)ureido)-N-(4-(2-methyl-2-(methylamino)propyl)phenyl) benzenesulfonamide]",2.8,7.7,47.7,66.2,–,0.0002,0.0005,–,–,–,–,–,–,–,–,–,–,Metabolic Stability Study D = dog [12]: 48.2 µL/min/mg; Metabolic Stability Study R = rat [13]: 36.2 µL/min/mg
"C[C@H](NC(=O)Nc1ccc(S(=O)(=O)Nc2ccc(CC(C)(C)N)cc2)cc1)c1ccc(-c2cnccn2)c(Cl)c1Cl [H0906, (S)-N-(4-(2-amino-2-methylpropyl)phenyl)-4-(3-(1-(2,3-dichloro-4-(pyrazin-2-yl)phenyl)ethyl)ureido) benzenesulfonamide]",6.8,18.9,19.9,24.4,0.1,0.0016,0.0004,–,–,–,–,–,–,–,–,–,–,Metabolic Stability Study R = rat [13]: 13.6 µL/min/mg; PK CLiv ([5]; i.v.): 3 mL/min/kg; PK Vdiv ([5]; i.v.): 0.27 L/kg; PK t1/2iv ([5]; i.v.): 1.03 h; PK CLpo ([5]; p.o.): 3991.2 mL/min/kg; PK Vdpo ([5]; p.o.): 479.77 L/kg; PK t1/2po ([5]; p.o.): 1.39 h
"CC(c1ccccc1)N(C)C(=O)Nc1ccc(S(=O)(=O)Cc2ccc3c(c2)CN(C)C3)cc1 (centres unmarked) [H1381, 1-methyl-3-(4-(((2-methylisoindolin-5-yl)methyl)sulfonyl)phenyl)-1-(1-phenylethyl)urea]",–,–,60,68.1,20.64,–,–,22.1 nM and 33.1 nM,–,480 nM and 257 nM,295,42.87,3.1,63.8,1.68,0.0906,0.0854,Metabolic Stability Study D = dog [12]: 88.7 µL/min/mg
